Test results taken from patent US9695155B2, “Herbicidal substituted pyrimidinyloxy benzene compounds” (E. I. DU PONT DE NEMOURS AND COMPANY, priority 2013, dated 2017).

Legend:
Heteranthera limosa = assay: Test B flooded paddy test; type: in vivo; details: Heteranthera limosa, Flood, 250 g ai/ha; 0 to 100 scale where 0 is no effect and 100 is complete control; read-out: Plant response rating, Ducksalad
How it was run: (§1)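 Plants were grown to the 2-leaf stage, then pots were flooded to 3 cm above the soil and compounds were applied directly into the paddy water. That depth was held throughout, and after 13 to 15 days in the greenhouse injury was rated visually against controls on a 0–100 scale (0 no effect, 100 complete control).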

waterhemp = assay: Test C postemergence; type: in vivo, Amaranthus rudis
How it was run: (§2)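 Preemergence: seeds sown in a loam soil–sand blend and sprayed with test chemical in a non-phytotoxic solvent mixture containing surfactant. Postemergence: plants at 2 to 18 cm (1- to 4-leaf stage) in peat-based medium, treated with the same formulation. Greenhouse 13 to 15 days, then visual rating 0 (no effect) to 100 (complete control).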

ragweed = assay: Test A preemergence; type: in vivo, Ambrosia elatior; details: 0 to 100 scale where 0 is no effect and 100 is complete control
How it was run: (§3)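 Injury scores run from 0, no effect, to 100, complete control, judged by eye against untreated plants roughly 10 days after treatment. Chemicals carried a surfactant in a non-phytotoxic solvent and went onto loam–sand soil preemergence or onto one- to two-leaf seedlings postemergence.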

corn [1] = assay: Test C preemergence; type: in vivo, Zea mays; details: Zea mays, pre-emergence
How it was run: as §2

galium [2] = assay: Test C preemergence; type: in vivo, Galium aparine; details: Galium, pre-emergence
How it was run: as §2

rice = assay: Test B flooded paddy test; type: in vivo, Oryza sativa; details: Oryza sativa; Flood, 250 g ai/ha; 0 to 100 scale where 0 is no effect and 100 is complete control; read-out: Plant response rating, Rice
How it was run: as §1

barnyardgrass [3] = assay: Test B flooded paddy test; type: in vivo, Echinochloa crus-galli; details: Echinochloa crus-galli; Flood, 250 g ai/ha; 0 to 100 scale where 0 is no effect and 100 is complete control; read-out: Plant response rating, Barnyardgrass
How it was run: as §1

kochia = assay: Test A preemergence; type: in vivo, Kochia scoparia; details: 0 to 100 scale where 0 is no effect and 100 is complete control
How it was run: as §3

corn [4] = assay: Test C postemergence; type: in vivo, Zea mays; details: Zea mays, post-emergence
How it was run: as §2

barnyardgrass [5] = assay: Test A postemergence; type: in vivo, Echinochloa crus-galli; details: Echinochloa crus-galli, post-emergence, 240 h, 0 to 100 scale where 0 is no effect and 100 is complete control
How it was run: as §3

galium [6] = assay: Test C postemergence; type: in vivo, Galium aparine; details: Galium, post-emergence
How it was run: as §2

Italian ryegrass [7] = assay: Test A preemergence; type: in vivo, Lolium multiflorum; details: 0 to 100 scale where 0 is no effect and 100 is complete control
How it was run: as §3

corn [8] = assay: Test A postemergence; type: in vivo, Zea mays; details: Zea mays, post-emergence, 240 h, 0 to 100 scale where 0 is no effect and 100 is complete control
How it was run: as §3

Italian ryegrass [9] = assay: Test C postemergence; type: in vivo, Lolium multiflorum
How it was run: as §2

lambsquarters = assay: Test C postemergence; type: in vivo, Chenopodium album
How it was run: as §2

pigweed = assay: Test C postemergence; type: in vivo, Amaranthus retroflexus
How it was run: as §2

[10] = 31 g ai/ha, postemergence, visual rating, scale 0 to 100 (0 no effect, 100 complete control), 13 to 15 days

FC(F)c1cn(-c2ccccc2Oc2ncc(Cl)cn2)nn1 [Compound 147, 5-chloro-2-[2-[4-(difluoromethyl)-1H-1,2,3-triazol-1-yl]phenoxy]pyrimidine]
pest or weed control at 250 g/ha (Heteranthera limosa): 80%
Waterhemp plant response rating (waterhemp; [10]): 55
pest or weed control at 16 g/ha (waterhemp; Amaranthus tuberculatus, post-emergence, 16 g ai/ha, postemergence, 0 is no effect, 100 is complete control, read-out: Plant response rating (0 to 100), Waterhemp): 40%
pest or weed control at 125 g/ha (waterhemp; Amaranthus tuberculatus, post-emergence, 125 g ai/ha, postemergence, visual rating, scale 0 to 100 (0 no effect, 100 complete control), read-out: Plant response rating, Waterhemp): 70%
pest or weed control at 62 g/ha (waterhemp; Amaranthus tuberculatus, post-emergence, Postemergence, 62 g ai/ha, scale 0 to 100 (0 no effect, 100 complete control), read-out: Plant response rating, Waterhemp): 85%
Plant response rating, Ragweed (ragweed; 125 g ai/ha): 90
Ragweed plant response rating (ragweed; 500 g ai/ha): 100
plant injury at 16 g/ha (corn [1]; 16 g ai/ha, preemergence, scale 0 to 100 (0 no effect, 100 complete control), read-out: Corn plant response rating): 0%
plant injury at 62 g/ha (corn [1]; 62 g ai/ha, preemergence, scale 0 (no effect) to 100 (complete control), read-out: Corn plant response rating): 20%
plant injury at 125 g/ha (corn [1]; 125 g ai/ha, preemergence, scale 0 (no effect) to 100 (complete control), read-out: Corn plant response rating): 35%
Corn plant response rating (crop injury, 0 = no effect, 100 = complete kill) at 31 g/ha (corn [1]; Preemergence, 31 g ai/ha, scale 0 to 100, 0 no effect, 100 complete control): 0%
pest or weed control at 16 g/ha (galium [2]; 16 g ai/ha, preemergence, scale 0 to 100 (0 no effect, 100 complete control), read-out: Galium plant response rating): 90%
pest or weed control at 62 g/ha (galium [2]; 62 g ai/ha, preemergence, scale 0 (no effect) to 100 (complete control), read-out: Galium plant response rating): 98%
pest or weed control at 125 g/ha (galium [2]; 125 g ai/ha, preemergence, scale 0 (no effect) to 100 (complete control), read-out: Galium plant response rating): 98%
pest or weed control at 31 g/ha (galium [2]; Preemergence, 31 g ai/ha, scale 0 to 100, 0 no effect, 100 complete control, read-out: Plant response rating, Galium): 98%
plant injury at 250 g/ha (rice): 35%
pest or weed control at 250 g/ha (barnyardgrass [3]): 35%
Plant response rating, Kochia (kochia; 125 g ai/ha): 100
Kochia plant response rating (kochia; 500 g ai/ha): 100
plant injury at 16 g/ha (corn [4]; 16 g ai/ha, postemergence, 0 is no effect, 100 is complete control, read-out: Plant response rating (0 to 100), Corn): 5%
plant injury at 31 g/ha (corn [4]; 31 g ai/ha, postemergence, visual rating, scale 0 to 100 (0 no effect, 100 complete control), 13 to 15 days, read-out: Corn plant response rating): 5%
Corn plant response rating (crop injury, 0 = no effect, 100 = complete kill) at 125 g/ha (corn [4]; 125 g ai/ha, postemergence, visual rating, scale 0 to 100 (0 no effect, 100 complete control)): 10%
Corn plant response rating (crop injury, 0 = no effect, 100 = complete kill) at 62 g/ha (corn [4]; Postemergence, 62 g ai/ha, scale 0 to 100 (0 no effect, 100 complete control)): 5%
pest or weed control at 125 g/ha (barnyardgrass [5]; 125 g ai/ha, read-out: Barnyardgrass plant response rating): 90%
pest or weed control at 500 g/ha (barnyardgrass [5]; 500 g ai/ha, read-out: Plant response rating, Barnyardgrass): 90%
pest or weed control at 16 g/ha (galium [6]; 16 g ai/ha, postemergence, 0 is no effect, 100 is complete control, read-out: Plant response rating (0 to 100), Galium): 85%
pest or weed control at 31 g/ha (galium [6]; 31 g ai/ha, postemergence, visual rating, scale 0 to 100 (0 no effect, 100 complete control), 13 to 15 days, read-out: Galium plant response rating): 90%
pest or weed control at 125 g/ha (galium [6]; 125 g ai/ha, postemergence, visual rating, scale 0 to 100 (0 no effect, 100 complete control), read-out: Plant response rating, Galium): 90%
pest or weed control at 62 g/ha (galium [6]; Postemergence, 62 g ai/ha, scale 0 to 100 (0 no effect, 100 complete control), read-out: Plant response rating, Galium): 90%
Plant response rating, Ryegrass, Italian (Italian ryegrass [7]; 125 g ai/ha): 10
Ryegrass, Italian plant response rating (Italian ryegrass [7]; 500 g ai/ha): 100
plant injury at 125 g/ha (corn [8]; 125 g ai/ha, read-out: Corn plant response rating): 40%
Corn plant response rating (crop injury, 0 = no effect, 100 = complete kill) at 500 g/ha (corn [8]; 500 g ai/ha): 90%
Ryegrass, Italian plant response rating (Italian ryegrass [9]; [10]): 0
pest or weed control at 16 g/ha (Italian ryegrass [9]; Lolium multiflorum, post-emergence, 16 g ai/ha, postemergence, 0 is no effect, 100 is complete control, read-out: Plant response rating (0 to 100), Ryegrass, Italian): 0%
pest or weed control at 125 g/ha (Italian ryegrass [9]; Lolium multiflorum, post-emergence, 125 g ai/ha, postemergence, visual rating, scale 0 to 100 (0 no effect, 100 complete control), read-out: Plant response rating, Ryegrass, Italian): 5%
pest or weed control at 62 g/ha (Italian ryegrass [9]; Lolium multiflorum, post-emergence, Postemergence, 62 g ai/ha, scale 0 to 100 (0 no effect, 100 complete control), read-out: Plant response rating, Ryegrass, Italian): 0%
Lambsquarters plant response rating (lambsquarters; [10]): 75
pest or weed control at 16 g/ha (lambsquarters; Chenopodium album, post-emergence, 16 g ai/ha, postemergence, 0 is no effect, 100 is complete control, read-out: Plant response rating (0 to 100), Lambsquarters): 60%
pest or weed control at 125 g/ha (lambsquarters; Chenopodium album, post-emergence, 125 g ai/ha, postemergence, visual rating, scale 0 to 100 (0 no effect, 100 complete control), read-out: Plant response rating, Lambsquarters): 98%
pest or weed control at 62 g/ha (lambsquarters; Chenopodium album, post-emergence, Postemergence, 62 g ai/ha, scale 0 to 100 (0 no effect, 100 complete control), read-out: Plant response rating, Lambsquarters): 90%
Pigweed plant response rating (pigweed; [10]): 60
pest or weed control at 16 g/ha (pigweed; Amaranthus retroflexus, post-emergence, 16 g ai/ha, postemergence, 0 is no effect, 100 is complete control, read-out: Plant response rating (0 to 100), Pigweed): 35%
pest or weed control at 125 g/ha (pigweed; Amaranthus retroflexus, post-emergence, 125 g ai/ha, postemergence, visual rating, scale 0 to 100 (0 no effect, 100 complete control), read-out: Plant response rating, Pigweed): 85%
pest or weed control at 62 g/ha (pigweed; Amaranthus retroflexus, post-emergence, Postemergence, 62 g ai/ha, scale 0 to 100 (0 no effect, 100 complete control), read-out: Plant response rating, Pigweed): 75%
